{"source": "patent US20240044899A1", "about": "“BIOMARKERS FOR FIMEPINOSTAT THERAPY” (Curis, Inc, priority 2021, published 2024)", "origin": "cited, not measured here", "test_system": "MYC-altered DLBCL/HGBL patients", "settings": "Prospective phase 2; DHL; sample size 16; cited from earlier work"}
{"substance": "Tisagenlecleucel", "values": [{"measurement": "CRR", "result": 25, "unit": "%"}, {"measurement": "ORR", "result": 50, "unit": "%/"}]}
